Laboratory results published in patent US4228187A, “Alkyl and cycloalkylthiophenylalkylaminoalkanols, their salts and the preparation thereof” (priority 1973, dated 1980).
Entries after “also recorded” stand apart in the source; their conditions may differ. Read-outs that look alike come from different tables or passages of the source.

Tests used:
[1] = system: occluding thrombosis of the femoral artery; assay: Prevention of arterial thrombosis in dogs; type: in vivo, dog; details: for n dogs with occluding thrombosis: controls 10 of 16, * α = 0.05; for incidence of occluding thrombosis of the femoral artery (in words): suloctidil 5 times 5 mg/kg i.m., acetylsalicylic acid 5 times 100 mg/kg p.o.
Procedure: In animals, 1-(4-isopropylthiophenyl)-2-n-octylaminopropanol reduces thromboformation in arteries and veins.
Thrombosis was induced in the femoral
artery of anesthetized dogs by a 30 min perfusions, in a
catheterized area of the vessel, of a solution of pronase.
Drugs administrations were made at 24 h intervals, for 5 days
the last dosage being given 30 min before anesthesia.

BaCl2 = assay: Antispasmodic activity, BaCl2
lipoproteinlipases = assay: Inhibitory effect on lipoproteinlipases; type: biochemical
platelet functions = assay: Platelet antiaggregating properties in vitro and in vivo
[2] = system: peripheral vasodilatatory activity; assay: Vasodilatory effect after intraarterial injection in dog; type: in vivo
Procedure: (1) intraarterial injection in dog (5 animals) 10, 20 and 30 μg/kg.
(2) maximum vasodilatory effect in mm of Hg.
(3) and (4) expressed in seconds.

Ac.chol. = assay: Antispasmodic activity, Ac.chol.
[3] = system: platelets emboli triggered by ADP; assay: Platelets emboli triggered by ADP in mice or rats; type: in vivo
Text: Since platelet aggregation is considered to be of paramount importance in thrombus formation, this anti-platelet activity of 1-(4-isopropylthiophenyl)-2-n-octylaminopropanol (suloctidil) is likely to explain its anti-thrombotic properties.

[4] = Prothrombine levels in patients under oral anti-coagulants therapy; type: in vivo, human; details: 900 mg daily with long-term oral anti-coagulants
Procedure: (§1) After a single oral intake of 200 mg the effect lasts for at least 6 h. Repeated administration of 1-(4-isopropylthiophenyl)-2-n-octylaminopropanol seems to optimalize its anti-platelet activity. […] Moreover, investigations on its mode of action indicate that the mechanism involved are quantitatively and qualitatively different from these of the other known anti-platelet agents.

cholesterol biosynthesis = assay: Inhibition of cholesterol biosynthesis in vitro (rat liver); type: cell-based; details: for inhibition at 100 µM / inhibition at 10 µM: Rattus norvegicus, rat liver, mean; for inhibition at 100 µM: 10^-4 M; for inhibition at 10 µM: 10^-5 M; for inhibition of cholesterol biosynthesis (in words): in vitro
Text: |Inhibition of cholesterol biosynthesis in vitro (rat liver). In- |hibitory effect of suloctidil and clofibrate on the incorpora- |tion of 1-^14 [NT] and 2-^14 C-mevalonate (MVA). |are mean values and range, expressed in % of inhibition. Unless |otherwise stated, n = 3.

[5] = system: vasoconstrictions induced by norepinephrine and angiotensine in the femoral circulation; assay: Inhibition of vasoconstrictions in the femoral circulation of dogs; set-up: species or system dog; details: in vivo, FIG. 1: i.a. 10 μg/kg/min, listed as suloctidil
Text: The vasoconstrictions are induced by i.a. norepinephrine (n=10) or angiotensine (n=8) during solvent (C) or drug (T) infusion.
Vertical bars are standard errors of the means and * or *** indicate statistically significant differences from the corresponding control values at the thresholds α=0.05 and 0.001 respectively.

[6] = system: spontaneously hypertensive rat; assay: Antihypertensive activity (spontaneously hypertensive rat); type: in vivo; details: 15 mg/kg per os
Procedure: (3) spontaneously hypertensive rat; 15 mg/kg per os;
± reduction of systolic pressure up to 10 mm of Hg
+ reduction of systolic pressure of 10 to 20 mm Hg
++ reduction of systolic pressure of at least 20 mm of Hg

[7] = system: vascular contractile cell; assay: Vascular antispasmodic activity: inhibition of induced vasoconstrictions in vitro and in vivo
[8] = system: ADP, L-epinephrine, collagen and Thrombofax induced aggregation; assay: Ex-vivo platelet aggregation after oral administration to healthy volunteers; set-up: species or system human
Procedure: as §1

[9] = system: thrombosis of the hepatic veins; assay: Prevention of deep veins thrombosis in rats; type: in vivo, rat; details: for n rats with score 2: control 1; for n rats with score 3: control 2; for n rats with score 1: control 12, * α = 0.05; for n rats with score 0: control 13, ** α = 0.01; for thrombosis of the hepatic veins (in words): rats fed hyperlipidemic diet 3 months, endotoxin
Procedure: (see table VI given below).
Thrombosis in the hepatic veins were in-
duced in rats fed an hyperlipidemic diet for 3 months by i.v.
injection of endotoxin (lipopolysaccharide B from Salmonella
Sulcoctidil was administered into the diet. The importance of the
thrombosis assessed by scoring the subsequent red
hepatic infarcts according to their number and surface.

Hist. = assay: Antispasmodic activity, Hist.
[10] = Blood viscosity and plasma fibrinogen in geriatric patients (pilot studies); type: in vivo, human; details: long-term treatment
[11] = system: catecholamines and methylxanthine induced lipolysis; assay: Antilipolytic activity in vitro in rat epididymal fat; type: cell-based
Bleeding time in man = type: in vivo, human; details: repeated administration
Procedure: as §1

[12] = system: experimental type II hyperlipidemia; assay: Experimental type II hyperlipidemia in monkeys; type: in vivo, monkey
[13] = system: peripheral and cerebral circulations; assay: Blood flow in peripheral and cerebral circulations after i.v. or oral administration; type: in vivo; details: mice or dogs
DL50 mouse p.o. = details: in vivo, po, limits of reliability (p : 0.95) in brackets
Text: (1) the limits of reliability (p : 0.95) are given in brackets.

guinea pig atria's = assay: Protective activity against anoxia (guinea pig atria); set-up: key: scale: + = 10 to 20% increase in survival time; details: increase in survival time
Text: (5) guinea pig atria's;
+ = increase in survival time of 10 to 20%

[14] = AA, read-out: Inhibition of incorporation of 1-^14 C-acetate (AA)
[15] = MVA, read-out: Inhibition of incorporation of 2-^14 C-mevalonate (MVA)

CC(=O)Oc1ccccc1C(=O)O [Acetylsalicylic acid, reference compound]
n dogs with occluding thrombosis ([1]; 5 × 100 mg/kg p.o., n = 10): 1
incidence of occluding thrombosis of the femoral artery (in words) [1]: also effective in these conditions

CCCCCCCCNC(C)C(O)c1ccc(SC(C)C)cc1 (centres unmarked) [No 2, 1-(4-isopropylthiophenyl)-2-n-octylaminopropanol]
Antispasmodic activity CE 100, BaCl2 (BaCl2): 100 μ g γ 60 ml
direct inhibitory effect on lipoproteinlipases (lipoproteinlipases): direct inhibitory effect on the activity of different lipoproteinlipases
platelet antiaggregating properties (platelet functions): potent platelet antiaggregating properties
platelet antiaggregating properties (platelet functions; listed as suloctidil): platelet anti-aggregating properties
peripheral vasodilatatory activity compared with papaverine [2]: greater degree of activity than papaverine
Amplitude (maximum vasodilatory effect) ([2]; 10 μg/kg): 42 mm of Hg
Duration of effect ([2]; 10 μg/kg): 226 s
Half-life (of vasodilatory effect) ([2]; 10 μg/kg): 1.57 min
Amplitude (maximum vasodilatory effect) ([2]; 20 μg/kg): 59 mm of Hg
Duration of effect ([2]; 20 μg/kg): 299 s
Half-life (of vasodilatory effect) ([2]; 20 μg/kg): 2.32 min
Amplitude (maximum vasodilatory effect) ([2]; 30 μg/kg): 67 mm of Hg
Duration of effect ([2]; 30 μg/kg): 390 s
Half-life (of vasodilatory effect) ([2]; 30 μg/kg): 2.63 min
Antispasmodic activity CE 100, Ac.chol. (Ac.chol.): 100 μ g γ 60 ml
activity compared with acetyl salicyclic acid ([3]; at the same dose): as active as acetyl salicyclic acid
formation of platelets emboli triggered by ADP ([3]; oral, mice or rats): blocked or decreased the formation of platelets emboli triggered by ADP
prothrombine levels [4]: does not markedly decrease prothrombine levels
inhibition at 100 µM (cholesterol biosynthesis; [14]): 49.4%
inhibition at 10 µM (cholesterol biosynthesis; [14]): 27.5%
inhibition at 100 µM (cholesterol biosynthesis; [15]): 25.9%
inhibition at 10 µM (cholesterol biosynthesis; [15]): 9.9%
inhibition of cholesterol biosynthesis (in words) (cholesterol biosynthesis): strong inhibitor of cholesterol biosynthesis; also recorded: more specific than that of standard compounds like clofibrate
inhibition of cholesterol biosynthesis (in words) (cholesterol biosynthesis; listed as suloctidil): markedly inhibits the biosynthesis of cholesterol
inhibition of vasoconstrictions in the femoral circulation [5]: potent inhibitor of vasoconstrictions; also recorded: more active than standard agents like papaverine and cinnarizine
Anti-hypertensive activity [6]: 0
vascular antispasmodic activity and vasodilating action [7]: potent vascular antispasmodic activity and vasodilating action
inhibition of vasoconstrictions ([7]; in vitro and in vivo, calcium, norepinephrine, 5-hydroxytryptamine and angiotensine): inhibits, in vitro and in vivo, vasocontrictions induced by various agents like calcium, norepinephrine, 5-hydroxytryptamine and angiotensine
inhibition of induced platelet aggregation ([8]; ex-vivo, single oral administration, 200 mg or more, healthy volunteers): strongly inhibits ADP, L-epinephrine, collagen and Thrombofax induced aggregation
duration of anti-aggregating effect ([8]; single oral intake of 200 mg): at least 6 h
n rats with score 2 ([9]; 10 mg/kg/day in diet): 0
n rats with score 3 ([9]; 10 mg/kg/day in diet): 0
n rats with score 1 ([9]; 10 mg/kg/day in diet): 4
n rats with score 0 ([9]; 10 mg/kg/day in diet): 25
n rats with score 2 ([9]; 25 mg/kg/day in diet): 0
n rats with score 3 ([9]; 25 mg/kg/day in diet): 0
n rats with score 1 ([9]; 25 mg/kg/day in diet): 5
n rats with score 0 ([9]; 25 mg/kg/day in diet): 23
thrombosis of the hepatic veins (in words) [9]: protection is still conferred by a 10 mg/kg oral dose
thrombosis of the hepatic veins (in words) ([9]; listed as suloctidil): markedly less frequent and less developped
Antispasmodic activity CE 100, Hist. (Hist.): 100 μ g γ 60 ml
plasma fibrinogen levels [10]: parallel reduction of the plasma fibrinogen levels
reduction of blood hyperviscosity ([10]; therapeutic dosage regimen): about 10%
antilipolytic activity [11]: potent antilipolytic activity
bleeding time (Bleeding time in man): does not prolong bleeding time in man
n dogs with occluding thrombosis ([1]; 5 × 5 mg/kg i.m., n = 16): 3
incidence of occluding thrombosis of the femoral artery (in words) [1]: significantly lower
hypocholesterolemic and normolipoproteinemic effects [12]: hypocholesterolemic and "normolipoproteinemic" effects observed in vivo
increase in blood flow in peripheral and cerebral circulations [13]: increase in blood flow in both peripheral and cerebral circulations
LD50 (DL50 mouse p.o.): 3700 mg/kg
Protective activity against anoxia (guinea pig atria's): 0
